Assay type in all cases: binding
What all share (settings): Compound Concentration 10 µM

Test [1] deals with T1, panel of 442 kinases (Homo sapiens, UniProt P45985).
T1 construct: purchased KINOMEscan
T1 sequence (P45985 1-399): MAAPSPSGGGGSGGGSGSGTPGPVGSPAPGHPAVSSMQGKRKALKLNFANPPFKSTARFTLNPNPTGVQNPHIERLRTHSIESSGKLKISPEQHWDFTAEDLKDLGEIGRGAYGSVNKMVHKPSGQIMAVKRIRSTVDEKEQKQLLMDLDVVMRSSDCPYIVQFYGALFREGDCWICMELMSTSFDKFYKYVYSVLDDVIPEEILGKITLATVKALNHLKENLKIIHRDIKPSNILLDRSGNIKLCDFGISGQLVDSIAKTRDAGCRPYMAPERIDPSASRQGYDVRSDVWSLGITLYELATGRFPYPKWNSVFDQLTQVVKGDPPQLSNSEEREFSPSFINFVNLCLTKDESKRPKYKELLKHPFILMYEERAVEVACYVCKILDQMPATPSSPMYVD
From the text: (§1) We assessed the selectivity of members of this scaffold using the KINOMEscan methodology across a near comprehensive panel of 442 kinases [[18,27]].

Test [2] has as its target T2, panel of 442 kinases (Homo sapiens, UniProt Q13627).
T2 construct: purchased KINOMEscan
Excerpt: as §1

Test [3] concerns the target T3, panel of 442 kinases (Homo sapiens, UniProt P49841).
T3 construct: purchased KINOMEscan
Excerpt: as §1

T3 sequence (P49841 whole entry): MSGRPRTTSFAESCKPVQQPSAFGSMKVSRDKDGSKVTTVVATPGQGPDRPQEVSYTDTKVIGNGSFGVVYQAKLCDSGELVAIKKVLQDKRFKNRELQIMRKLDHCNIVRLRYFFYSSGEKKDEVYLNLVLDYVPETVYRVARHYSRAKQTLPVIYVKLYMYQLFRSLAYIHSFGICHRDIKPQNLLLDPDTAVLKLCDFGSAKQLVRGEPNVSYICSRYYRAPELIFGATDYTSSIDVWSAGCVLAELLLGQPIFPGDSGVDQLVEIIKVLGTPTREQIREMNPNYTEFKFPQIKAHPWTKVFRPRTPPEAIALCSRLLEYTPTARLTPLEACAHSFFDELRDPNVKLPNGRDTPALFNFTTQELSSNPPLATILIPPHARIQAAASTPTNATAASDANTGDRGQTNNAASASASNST

Regarding `COc1cc(C(=O)N2CCC(N3CCN(C)CC3)CC2)ccc1Nc1ncc2c(n1)N(C)c1ccccc1C(=O)N2C` [15 (LRRK2-IN-1)], on panel of 442 kinases [1], the “KINOMEscan: MEK4” value stood at 100. Also, at panel of 442 kinases [2], the “KINOMEscan: DYRK1A” value came out at 99. The “KINOMEscan: GSK3B” value on panel of 442 kinases [3] is given as 88.

As to `COc1cc(C(=O)N2CCC(N3CCN(C)CC3)CC2)ccc1Nc1ncc2c(n1)N1CCc3cccc(c31)C(=O)N2C` [Compound 24], the “KINOMEscan: DYRK1A” value at panel of 442 kinases [2] was 67. The “KINOMEscan: GSK3B” value at panel of 442 kinases [3] came to 72.

Regarding `COc1cc(C(=O)N2CCC(N3CCN(C)CC3)CC2)ccc1Nc1ncc2c(n1)N(C1CCCC1)c1ccccc1C(=O)N2C` [Compound 25, 11-cyclopentyl-2-((2-methoxy-4-(4-(4-methylpiperazin-1-yl)piperidine-1-carbonyl)phenyl)amino)-5-methyl-5H-benzo[e]pyrimido[5,4-b][1,4]diazepin-6(11H)-one], the “KINOMEscan: MEK4” value at panel of 442 kinases [1] turned out to be 100. The “KINOMEscan: DYRK1A” value on panel of 442 kinases [2] came to 100. Further, the “KINOMEscan: GSK3B” value at panel of 442 kinases [3] is 80.

With `CCOc1cc(C(=O)N2CCC(N3CCN(C)CC3)CC2)ccc1Nc1ncc2c(n1)N(C1CCCC1)c1ccccc1C(=O)N2C` [Compound 26], the “KINOMEscan: MEK4” value on panel of 442 kinases [1] stood at 100. Also, on panel of 442 kinases [2], the “KINOMEscan: DYRK1A” value stood at 88. Moreover, the “KINOMEscan: GSK3B” value on panel of 442 kinases [3] was found to be 98.

The values above are taken from paper PMC3914206.
